Assays:
Type in all cases: biochemical
hMeprin α [1] = biological target: T1, hMeprin α (Homo sapiens, UniProt Q16819); test: Enzymatic assay, quenched peptide substrate cleavage, method A; conditions: geometric mean (geometric SD factor in parentheses), read-out: Meprin alpha IC50
T1 sequence (Q16819 66-746): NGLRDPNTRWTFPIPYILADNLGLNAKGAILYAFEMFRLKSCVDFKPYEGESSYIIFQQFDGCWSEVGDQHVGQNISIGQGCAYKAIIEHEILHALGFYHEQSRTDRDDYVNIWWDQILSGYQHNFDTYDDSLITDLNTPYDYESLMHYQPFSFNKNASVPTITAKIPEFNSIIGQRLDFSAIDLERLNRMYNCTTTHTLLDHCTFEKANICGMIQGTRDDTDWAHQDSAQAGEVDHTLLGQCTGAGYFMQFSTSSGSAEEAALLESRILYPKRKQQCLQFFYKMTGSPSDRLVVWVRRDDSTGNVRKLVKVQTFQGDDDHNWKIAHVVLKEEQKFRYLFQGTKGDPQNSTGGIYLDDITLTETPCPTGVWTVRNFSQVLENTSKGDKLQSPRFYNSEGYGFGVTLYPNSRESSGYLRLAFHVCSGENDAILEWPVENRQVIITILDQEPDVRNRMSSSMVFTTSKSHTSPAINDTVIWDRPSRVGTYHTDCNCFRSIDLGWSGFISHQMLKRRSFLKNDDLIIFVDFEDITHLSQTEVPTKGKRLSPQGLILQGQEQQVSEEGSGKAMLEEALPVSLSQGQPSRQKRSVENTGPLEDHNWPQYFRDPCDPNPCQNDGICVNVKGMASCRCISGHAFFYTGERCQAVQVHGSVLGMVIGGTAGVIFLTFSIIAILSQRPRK
Experimental: (§1) The determination of enzymatic activity was based on the cleavage of internally quenched peptide substrates. A typical assay of 250 μl total volume measured in black 96 well plates consisted of 100 μl buffer, 50 μl enzyme at a final concentration of 5e-8 M to 2e-10 M, 50 μl substrate (0.15 to 80 μM, in buffer, 0.5% DMSO) and 50 μl inhibitor solution (in buffer, 1% DMSO). In case of 125 μl assay volume (black 96 half area well plates) all volumes were cut in half. Enzymatic activity of ADAMs was measured in 384 well plates with 60 μl total assay volume consisting of 20 μl inhibitor, 20 μl buffer, 10 μl enzyme and 10 μl substrate.
(§2) Based on method B Ki^(app) values were determined using Morrison's equation. All measurements were performed using a fluorescence plate reader (FLUOSTAR OPTIMA, BMG Labtech) at 30° C. The kinetic parameters were determined at least in duplicates on separate days. The excitation/emission wavelength was 340/420 nm. The kinetic data was evaluated using GRAFIT software (version 7.0.3, Erithacus Software).

hMeprin β [2] = biological target: T2, hMeprin β (Homo sapiens, UniProt Q16820); test: as above; conditions: geometric mean (geometric SD factor in parentheses), read-out: Meprin beta IC50
T2 sequence (Q16820 62-701): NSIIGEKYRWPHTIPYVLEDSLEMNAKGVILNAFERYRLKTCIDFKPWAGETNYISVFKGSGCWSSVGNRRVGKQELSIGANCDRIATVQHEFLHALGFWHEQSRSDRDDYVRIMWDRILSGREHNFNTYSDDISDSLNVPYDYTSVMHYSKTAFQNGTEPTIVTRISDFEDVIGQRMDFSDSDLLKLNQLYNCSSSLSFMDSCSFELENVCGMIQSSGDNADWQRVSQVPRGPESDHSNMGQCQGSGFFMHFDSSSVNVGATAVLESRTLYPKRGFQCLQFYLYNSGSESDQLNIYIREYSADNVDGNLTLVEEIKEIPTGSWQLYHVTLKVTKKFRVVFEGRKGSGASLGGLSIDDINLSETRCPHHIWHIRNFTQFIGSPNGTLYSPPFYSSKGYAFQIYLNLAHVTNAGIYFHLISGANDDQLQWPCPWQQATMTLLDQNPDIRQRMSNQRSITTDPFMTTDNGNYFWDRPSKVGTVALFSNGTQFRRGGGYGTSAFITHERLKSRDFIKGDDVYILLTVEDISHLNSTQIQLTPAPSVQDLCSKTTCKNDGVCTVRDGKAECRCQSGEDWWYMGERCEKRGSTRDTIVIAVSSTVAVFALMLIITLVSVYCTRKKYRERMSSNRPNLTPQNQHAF
Experimental: as §1, §2

hMMP 9 = biological target: T3, hMMP 9 (Homo sapiens, UniProt P14780); test: Residual enzyme activity of other metalloproteases; conditions: read-out: Residual enzyme activity MMP9
T3 construct: purchased R&D systems
Experimental: as §1
MMPs were activated prior to measurement by APMA (p-aminophenylmercuric acetate) treatment according to manufacturer's instructions (R&D systems).

hADAM 17 = biological target: T4, hADAM 17 (Homo sapiens, UniProt P78536); test: Residual enzyme activity of other metalloproteases; conditions: read-out: Residual enzyme activity ADAM17
T4 construct: purchased R&D systems
Experimental: as §1

hADAM 10 = biological target: T5, hADAM 10 (Homo sapiens, UniProt O14672); test: Residual enzyme activity of other metalloproteases; conditions: read-out: Residual enzyme activity ADAM10
T5 construct: purchased R&D systems
T5 sequence (O14672 214-748): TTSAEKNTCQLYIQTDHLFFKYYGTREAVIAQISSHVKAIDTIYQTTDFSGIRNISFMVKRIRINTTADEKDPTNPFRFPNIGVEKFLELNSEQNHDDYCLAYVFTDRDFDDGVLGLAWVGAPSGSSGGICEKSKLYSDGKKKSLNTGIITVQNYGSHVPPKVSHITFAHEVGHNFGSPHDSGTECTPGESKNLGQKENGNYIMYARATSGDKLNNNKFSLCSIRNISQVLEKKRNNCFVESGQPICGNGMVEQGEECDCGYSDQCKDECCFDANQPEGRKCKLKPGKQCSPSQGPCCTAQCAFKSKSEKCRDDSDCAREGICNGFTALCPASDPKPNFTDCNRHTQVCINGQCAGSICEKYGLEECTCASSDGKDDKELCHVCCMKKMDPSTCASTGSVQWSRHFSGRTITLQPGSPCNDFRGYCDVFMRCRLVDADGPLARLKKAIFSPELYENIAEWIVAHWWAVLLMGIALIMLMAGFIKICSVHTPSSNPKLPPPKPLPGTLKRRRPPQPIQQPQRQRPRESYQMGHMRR
Experimental: as §1

hMeprin α [3] = biological target: T1, hMeprin α; test: Enzymatic assay, quenched peptide substrate cleavage, method B; conditions: geometric mean (geometric SD factor in parentheses); for Ki: Morrison's equation, read-out: Meprin alpha Ki(app); for IC50: read-out: Meprin alpha IC50
Experimental: as §1, §2

hMeprin β [4] = biological target: T2, hMeprin β; test: as above; conditions: geometric mean (geometric SD factor in parentheses); for Ki: Morrison's equation, read-out: Meprin beta Ki(app); for IC50: read-out: Meprin beta IC50
Experimental: as §1, §2

T4 sequence (P78536 215-824): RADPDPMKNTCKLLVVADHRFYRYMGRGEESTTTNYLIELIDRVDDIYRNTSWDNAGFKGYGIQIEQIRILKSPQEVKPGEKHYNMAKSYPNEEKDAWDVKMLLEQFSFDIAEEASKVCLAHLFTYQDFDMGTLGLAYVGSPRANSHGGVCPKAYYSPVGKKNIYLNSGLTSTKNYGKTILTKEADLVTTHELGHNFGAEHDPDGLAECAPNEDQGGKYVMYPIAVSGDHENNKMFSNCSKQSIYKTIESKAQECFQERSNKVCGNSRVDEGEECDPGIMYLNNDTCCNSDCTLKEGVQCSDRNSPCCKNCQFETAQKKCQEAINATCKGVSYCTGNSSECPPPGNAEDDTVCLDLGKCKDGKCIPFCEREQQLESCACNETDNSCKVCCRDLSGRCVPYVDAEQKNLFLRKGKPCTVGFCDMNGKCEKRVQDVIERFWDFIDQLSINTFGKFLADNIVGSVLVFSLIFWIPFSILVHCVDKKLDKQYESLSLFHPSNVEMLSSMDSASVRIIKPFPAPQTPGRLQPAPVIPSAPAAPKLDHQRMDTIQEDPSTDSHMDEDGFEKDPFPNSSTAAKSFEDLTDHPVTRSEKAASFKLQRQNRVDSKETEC
T3 sequence (P14780 107-707 limits assumed): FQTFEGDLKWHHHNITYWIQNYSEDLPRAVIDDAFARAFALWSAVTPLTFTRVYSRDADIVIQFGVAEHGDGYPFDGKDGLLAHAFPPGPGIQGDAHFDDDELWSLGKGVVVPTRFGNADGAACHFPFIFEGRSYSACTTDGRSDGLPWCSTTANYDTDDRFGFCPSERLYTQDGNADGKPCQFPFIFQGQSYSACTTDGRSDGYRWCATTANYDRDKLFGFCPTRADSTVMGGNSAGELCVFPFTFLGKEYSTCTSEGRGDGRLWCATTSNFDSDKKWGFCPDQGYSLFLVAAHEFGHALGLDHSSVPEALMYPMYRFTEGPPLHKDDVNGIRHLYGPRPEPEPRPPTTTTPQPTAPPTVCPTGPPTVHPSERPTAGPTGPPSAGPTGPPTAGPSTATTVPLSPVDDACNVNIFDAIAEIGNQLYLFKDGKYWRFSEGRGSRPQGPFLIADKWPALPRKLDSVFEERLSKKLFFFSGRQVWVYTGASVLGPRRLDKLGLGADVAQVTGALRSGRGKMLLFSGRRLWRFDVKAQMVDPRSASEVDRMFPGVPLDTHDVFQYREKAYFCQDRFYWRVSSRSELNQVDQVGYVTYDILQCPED

Compound | Ki (hMeprin α [3]) | IC50 (hMeprin α [3]) | Ki (hMeprin β [4]) | IC50 (hMeprin β [4]) | other results
O=C(Cn1nc(-c2ccccc2)cc1-c1ccccc1)NO [Example 5, 2-(3,5-Diphenylpyrazol-1-yl)ethanehydroxamic acid] |  |  |  |  | IC50 (hMeprin α [1]): 292 nM; IC50 (hMeprin β [2]): 10500 nM
O=C(Cn1c(-c2ccccc2)nc2cccnc21)NO [Example 23, 2-(2-Phenylimidazo[4,5-b]pyridin-3-yl)ethane-hydroxamic acid] |  |  |  |  | IC50 (hMeprin α [1]): 273 nM; IC50 (hMeprin β [2]): 4560 nM
O=C(CCn1nc(-c2ccccc2)cc1-c1ccccc1)NO [Example 6, 3-(3,5-Diphenylpyrazol-1-yl)propanehydroxamic acid] |  |  |  |  | IC50 (hMeprin α [1]): 457 nM; IC50 (hMeprin β [2]): 15400 nM
O=C(CNc1c(-c2ccccc2)nc2c(C(=O)O)cccn12)NO [Example 33, 3-[[2-(Hydroxyamino)-2-oxo-ethyl]amino]-2-phenyl-imidazo[1,2-a]pyridine-8-carboxylic acid] |  |  |  |  | IC50 (hMeprin α [1]): 6740 nM; IC50 (hMeprin β [2]): 3100 nM
O=C(Cc1c(-c2ccc3c(c2)OCO3)n[nH]c1-c1ccc2c(c1)OCO2)NO [Example 57, 2-[3,5-Bis(1,3-benzodioxol-5-yl)-1H-pyrazol-4-yl]ethanehydroxamic acid] | 0.64 nM | 0.72 nM | 113 nM | 119 nM | remaining activity at 10 µM (hMMP 9; 10 μM inhibitor): 63%; remaining activity at 200 µM (hMMP 9; 200 μM inhibitor): 10%; remaining activity at 10 µM (hADAM 17; 10 μM inhibitor): 57%; remaining activity at 200 µM (hADAM 17; 200 μM inhibitor): 4%; remaining activity at 10 µM (hADAM 10; 10 μM inhibitor): 62%; remaining activity at 200 µM (hADAM 10; 200 μM inhibitor): 0%
O=C(Cn1c(-c2ccccc2C(=O)O)nc2ccccc21)NO [Example 17, 2-[1-[2-(Hydroxyamino)-2-oxo-ethyl]benzimidazol-2-yl]benzoic acid] | 1390 nM | 1430 nM | 13200 nM | 13700 nM | 
O=C(Cc1c(-c2ccc(Cl)c(O)c2F)n[nH]c1-c1ccc(Cl)c(O)c1F)NO [Example 60, 2-[3,5-Bis(4-chloro-2-fluoro-3-hydroxy-phenyl)-1H-pyrazol-4-yl]ethanehydroxamic acid] | 4 nM | 4 nM | 14 nM | 14 nM | 
O=C(Cn1c(-c2ccc(Cl)c(O)c2F)nc2ccc(C(=O)O)cc21)NO [Example 22, 2-(4-Chloro-2-fluoro-3-hydroxy-phenyl)-3-[2-(hydroxyamino)-2-oxo-ethyl]benzimidazole-5-carboxylic acid] | 6 nM | 6 nM | 7 nM | 8 nM | 
O=C(Cc1c(-c2ccc(C(=O)O)cc2)n[nH]c1-c1ccccc1)NO [Example 52, 4-[4-[2-(Hydroxyamino)-2-oxo-ethyl]-5-phenyl-1H-pyrazol-3-yl]benzoic acid] | 17 nM | 18 nM | 116 nM | 130 nM | 
Cc1n[nH]c(-c2ccccc2)c1CC(=O)NO [Example 44, 2-(3-Methyl-5-phenyl-1H-pyrazol-4-yl)ethanehydroxamic acid] | 302 nM | 310 nM | 2110 nM | 2170 nM | 
O=C(Cc1c(C2CCCC(C(=O)O)C2)n[nH]c1-c1ccccc1)NO (stereo not shown) [Example 74, 3-[4-[2-(Hydroxyamino)-2-oxo-ethyl]-5-phenyl-1H-pyrazol-3-yl]cyclohexanecarboxylic acid] | 1 nM | 1 nM | 55 nM | 55 nM | 
O=C(Cc1c(-c2cccc(-c3nnn[nH]3)c2)n[nH]c1-c1ccccc1)NO [Example 71, 2-[5-Phenyl-3-[3-(1H-tetrazol-5-yl)phenyl]-1H-pyrazol-4-yl]ethanehydroxamic acid] | 0.71 nM | 0.71 nM | 7 nM | 7 nM | 
N#Cc1ccc(-c2n[nH]c(-c3ccccc3)c2CC(=O)NO)cc1 [Example 56, 2-[3-(4-Cyanophenyl)-5-phenyl-1H-pyrazol-4-yl]ethanehydroxamic acid] | 14 nM | 14 nM | 995 nM | 1020 nM | 
O=C(Cc1c([C@@H]2CCCC[C@@H]2C(=O)O)n[nH]c1-c1ccccc1)NO [Example 73, (1S,2R)-2-[4-[2-(Hydroxyamino)-2-oxoethyl]-5-phenyl-1H-pyrazol-3-yl]cyclohexanecarboxylic acid] | 0.26 nM | 0.34 nM | 33 nM | 33 nM | 
O=C(Cc1c(-c2cccc(C(=O)O)c2)[nH]nc1[C@H]1CC[C@@H](C(=O)O)CC1)NO [Example 77, cis-3-[3-(4-carboxycyclohexyl)-4-[2-(hydroxyamino)-2-oxo-ethyl]-1H-pyrazol-5-yl]benzoic acid] | 23 nM | 24 nM | 15 nM | 15 nM | 
O=C(Cc1c(-c2ccc(C(=O)O)cc2)n[nH]c1-c1ccc(Cl)c(O)c1F)NO [Example 65, 4-[5-(4-Chloro-2-fluoro-3-hydroxy-phenyl)-4-[2-(hydroxyamino)-2-oxo-ethyl]-1H-pyrazol-3-yl]benzoic acid] | 10 nM | 10 nM | 11 nM | 12 nM | 
O=C(Cn1c(-c2cccc(C(=O)O)c2)nc2ccccc21)NO [Example 18, 3-[1-[2-(Hydroxyamino)-2-oxo-ethyl]benzimidazol-2-yl]benzoic acid] | 62 nM | 63 nM | 160 nM | 164 nM | 
O=C(Cc1c(-c2cc(O)no2)n[nH]c1-c1ccccc1)NO [Example 69, 2-[3-(3-Hydroxyisoxazol-5-yl)-5-phenyl-1H-pyrazol-4-yl]ethanehydroxamic acid] | 16 nM | 17 nM | 14 nM | 14 nM | 

Reference: patent publication US20250388544A1, “HETEROAROMATIC INHIBITORS OF ASTACIN PROTEINASES” (VIVORYON THERAPEUTICS N.V., priority 2019, published 2025)
